# Source: patent US20200323793A1, “COMBINATION THERAPY COMPRISING A POLYUNSATURATED KETONE AND A CALCINEURIN INHIBITOR” (Avexxin AS, priority 2016, published 2020)
# Tests used:
# [1] = system: skin keratinocyte cell line HaCaT; test: Resazurin assay, HaCaT proliferation and viability, Example 1 (24 hours of treatment); assay type: cell-based; details: Homo sapiens, 25 μM alone, read-out: reduction of proliferation and viability of HaCaT cells
# Protocol: (§1) The spontaneously immortalized, nontumorigenic skin keratinocyte cell line HaCaT was maintained in DMEM supplemented with 5% (v/v) FBS, 0.3 mg/ml glutamine and 0.1 mg/ml gentamicin at 37° C. with 5% CO2 in a humidified atmosphere. Subculture using trypsin-EDTA was performed every 3-4 days with split ratio of 1:3-1:4 to ensure actively proliferating cells.
# Cells were seeded in 96 well plates in fully supplemented medium at a density of 2500 cells per well. Following 72 hours of cultivation, the cells were starved of serum in 0.25% FBS/DMEM overnight to halt proliferation, synchronize and to increase cell sensitivity to treatment. On day 4, the cells were treated with cPLA2α inhibitor Compound A1 and immunomodulator Pimecrolimus (Karebay Biochem # Ki0907) and left to incubate for […] in incubator at 37° C. with 5% CO2 in a humidified atmosphere before fluorescence was read at 544 nm excitation and 590 nm emission wavelength. The cells were observed under the microscope to evaluate possible morphology changes and signs of stress before addition of resazurin. The experiments were performed in series of 8 wells per treatment and repeated 2-3 times.
# [2] = system: skin keratinocyte cell line HaCaT; test: Resazurin assay, HaCaT cell viability, Example 2 (48 hours of treatment); assay type: cell-based, human; details: each alone, dose response over 48 hours
# Protocol: as §1
# Cells were seeded in 96 well plates in fully supplemented medium at a density of 3000 cells per well. Following 72 hour of cultivation, the cells were starved of serum in 0.25% FBS/DMEM overnight to halt proliferation, synchronize the cells and to increase cell sensitivity to treatment. Next day, the cells were treated with Compound A1 and calcineurin inhibitor Pimecrolimus for 48 hours. Resazurin was added according to the manufacturer's instruction (RnD Systems, UK) and left to incubate for […] in incubator at 37° C. with 5% CO2 in a humidified atmosphere before fluorescence was read at 544 nm excitation and 590 nm emission wavelength. The cells were observed under the microscope to evaluate possible morphology changes and signs of stress before addition of resazurin. The experiments were performed in series of 8 wells per treatment.
smiles,measurement,setting,value
CC[C@@H]1/C=C(\C)C[C@H](C)C[C@H](OC)[C@H]2O[C@@](O)(C(=O)C(=O)N3CCCC[C@H]3C(=O)O[C@H](/C(C)=C/[C@@H]3CC[C@H](Cl)[C@H](OC)C3)[C@H](C)[C@@H](O)CC1=O)[C@H](C)C[C@@H]2OC [Pimecrolimus],cytotoxicity at 25 µM,[1],~15%
same,activity against viability of the cells (dose response),[2],active inhibitors
